In patent publication EP0183129A1, “Quinolonecarboxylic acid derivatives” (KYORIN PHARMACEUTICAL CO., LTD., priority 1984, dated 1986):
In brackets after ≈: the same amount, converted by molar mass. Like-named read-outs stand apart in the source and are kept apart here.

Key:
S. pneumoniae 15 = assay: In vitro antibacterial activity, MIC (clinical isolates); format: cell-based; details: Streptococcus pneumoniae; S. pneumoniae 15; 10^6 cells/ml; clinical isolate; read-out: MIC
[1] = test system: Salmonella entritidis IID 604; assay: In vitro antibacterial activity, MIC (standard strain); format: cell-based; details: IID604; Salmonella entritidis IID 604; 10^6 cells/ml; standard strain; read-out: MIC
[2] = test system: Alcaligenes faecalis 0104002; assay: as above; format: cell-based; details: Alcaligenes faecalis, 0104002, Alcaligenes faecalis 0104002; 10^6 cells/ml; standard strain; read-out: MIC
S. faecalis 49 = assay: In vitro antibacterial activity, MIC (clinical isolates); format: cell-based; details: Enterococcus faecalis; S. faecalis 49; 10^6 cells/ml; clinical isolate; read-out: MIC
S. agalactiae 4049 = assay: as above; format: cell-based; details: Streptococcus agalactiae; S. agalactiae 4049; 10^6 cells/ml; clinical isolate; read-out: MIC
B. fragilis 0558 = assay: In vitro antibacterial activity, MIC (standard strain); format: cell-based, Bacteroides fragilis; details: Bacteroides fragilis, 0558, B. fragilis 0558; 10^6 cells/ml; standard strain; read-out: MIC
[3] = test system: Yersinia enterocolitica IID 981; assay: as above; format: cell-based; details: IID981; Yersinia enterocolitica IID 981; 10^6 cells/ml; standard strain; read-out: MIC
Shigella sonnei IID 969 = assay: as above; format: cell-based; details: IID969, 10^6 cells/ml
Protocol: Experiment-1 In vitro antibacterial activity
The in vitro antibacterial activity against gram-positive and gram-negative bacteria has been investivated.
The minimum inhibitory concentration (MIC) was determined in accordance with the method recommended by Japan Society of Chemotherapy.

S. pyogenes 3107 = assay: In vitro antibacterial activity, MIC (clinical isolates); format: cell-based; details: Streptococcus pyogenes
S. pneumoniae 2054 = assay: as above; format: cell-based; details: Streptococcus pneumoniae; S. pneumoniae 2054; 10^6 cells/ml; clinical isolate; read-out: MIC
C. ramosum = assay: In vitro antibacterial activity, MIC (standard strain); format: cell-based; details: Thomasclavelia ramosa; C. ramosum; 10^6 cells/ml; standard strain; read-out: MIC
[4] = test system: Fusobacterium varium KYA 8501; assay: as above; format: cell-based; details: Fusobacterium varium, KYA8501, Fusobacterium varium KYA 8501; 10^6 cells/ml; standard strain; read-out: MIC
S. aureus Smith = assay: as above; format: cell-based, Staphylococcus aureus; details: Staphylococcus aureus, S. aureus Smith, 10^6 cells/ml, standard strain
[5] = test system: Acinetobacter anitratus IID 876; assay: as above; format: cell-based; details: Acinetobacter calcoaceticus, IID876, Acinetobacter anitratus IID 876; 10^6 cells/ml; standard strain; read-out: MIC
S. faecalis IID 682 = assay: as above; format: cell-based; details: Enterococcus faecalis, IID682
S. agalactiae 4470 = assay: In vitro antibacterial activity, MIC (clinical isolates); format: cell-based; details: Streptococcus agalactiae; S. agalactiae 4470; 10^6 cells/ml; clinical isolate; read-out: MIC
[6] = test system: Citrobacter freundii IID 976; assay: In vitro antibacterial activity, MIC (standard strain); format: cell-based; details: IID976; Citrobacter freundii IID 976; 10^6 cells/ml; standard strain; read-out: MIC
K. pneumoniae 1-220S = assay: as above; format: cell-based; details: Klebsiella pneumoniae, 1220S; K. pneumoniae 1-220S; 10^6 cells/ml; standard strain; read-out: MIC
S. pyogenes 3130 = assay: In vitro antibacterial activity, MIC (clinical isolates); format: cell-based; details: Streptococcus pyogenes
[7] = test system: Bacteroides fragilis GM 7000; assay: In vitro antibacterial activity, MIC (standard strain); format: cell-based; details: GM7000; Bacteroides fragilis GM 7000; 10^6 cells/ml; standard strain; read-out: MIC
[8] = test system: Bacillus subtilis PCI 219; assay: as above; format: cell-based; details: PCI219; Bacillus subtilis PCI 219; 10^6 cells/ml; standard strain; read-out: MIC
E. coli ATCC 10536 = assay: as above; format: cell-based; details: Escherichia coli, ATCC10536; E. coli ATCC 10536; 10^6 cells/ml; standard strain; read-out: MIC
S. marcescens GN 7577 = assay: as above; format: cell-based; details: Serratia marcescens, GN7577
S. epidermidis IID 866 = assay: as above; format: cell-based; details: Staphylococcus epidermidis, IID866, S. epidermidis IID 866; 10^6 cells/ml; standard strain; read-out: MIC
S. pyogenes 3102 = assay: In vitro antibacterial activity, MIC (clinical isolates); format: cell-based; details: Streptococcus pyogenes
E. coli ML 4707 = assay: In vitro antibacterial activity, MIC (standard strain); format: cell-based; details: Escherichia coli, ML4707; E. coli ML 4707; 10^6 cells/ml; standard strain; read-out: MIC
P. aeruginosa IID 1210 = assay: as above; format: cell-based; details: Pseudomonas aeruginosa, IID1210; P. aeruginosa IID 1210; 10^6 cells/ml; standard strain; read-out: MIC
[9] = test system: Pseudomonas aeruginosa V-1; assay: as above; format: cell-based; details: V1; Pseudomonas aeruginosa V-1; 10^6 cells/ml; standard strain; read-out: MIC
S. pyogenes 4340 = assay: In vitro antibacterial activity, MIC (clinical isolates); format: cell-based; details: Streptococcus pyogenes
S. agalactiae 4342 = assay: as above; format: cell-based; details: Streptococcus agalactiae; S. agalactiae 4342; 10^6 cells/ml; clinical isolate; read-out: MIC
[10] = S. pyogenes 3107, 10^6 cells/ml, clinical isolate, read-out: MIC
[11] = S. faecalis IID 682, 10^6 cells/ml, standard strain, read-out: MIC
[12] = S. marcescens GN 7577, 10^6 cells/ml, standard strain, read-out: MIC
[13] = S. pyogenes 3102, 10^6 cells/ml, clinical isolate, read-out: MIC
[14] = S. pyogenes 4340, 10^6 cells/ml, clinical isolate, read-out: MIC

Row | Compound | MIC (S. pneumoniae 15) [µg/mL] | MIC [1] [µg/mL] | MIC [2] [µg/mL] | MIC (S. faecalis 49) [µg/mL] | MIC (S. agalactiae 4049) [µg/mL] | MIC (B. fragilis 0558) [µg/mL] | MIC [3] [µg/mL] | MIC (Shigella sonnei IID 969) [µg/mL] | MIC (S. pneumoniae 2054) [µg/mL] | MIC (C. ramosum) [µg/mL] | MIC [4] [µg/mL] | MIC [5] [µg/mL] | MIC (S. agalactiae 4470) [µg/mL] | MIC [6] [µg/mL] | MIC (K. pneumoniae 1-220S) [µg/mL] | MIC [7] [µg/mL] | MIC [8] [µg/mL] | MIC (E. coli ATCC 10536) [µg/mL] | MIC (S. epidermidis IID 866) [µg/mL] | MIC (E. coli ML 4707) [µg/mL] | further results
1 | CCNCC1CCN(c2c(F)cc3c(=O)c(C(=O)O)cn(C4CC4)c3c2Br)C1 (stereo not drawn) [Example 17, 8-Bromo-l-cyclopropyl-7-(3-ethylaminomethyl-l-pyrrolidinyl)-6-fluoro-1,4-dihydro-4-oxo-3-quinolinecarboxylic acid] | 0.05 (≈ 0.111 µM) | 0.1 (≈ 0.221 µM) | 0.39 (≈ 0.862 µM) | 0.1 (≈ 0.221 µM) | 0.05 (≈ 0.111 µM) | ≤ 0.05 | 0.1 (≈ 0.221 µM) | 0.025 (≈ 0.0553 µM) | 0.05 (≈ 0.111 µM) | 0.39 (≈ 0.862 µM) | 0.39 (≈ 0.862 µM) | 0.05 (≈ 0.111 µM) | 0.05 (≈ 0.111 µM) | 0.05 (≈ 0.111 µM) | 0.1 (≈ 0.221 µM) | 0.1 (≈ 0.221 µM) | 0.0125 (≈ 0.0276 µM) | 0.025 (≈ 0.0553 µM) | 0.025 (≈ 0.0553 µM) | 0.025 (≈ 0.0553 µM) | MIC (S. pyogenes 3107; [10]): 0.05 µg/mL (≈ 0.111 µM); MIC (S. aureus Smith; read-out: MIC): 0.0125 µg/mL (≈ 0.0276 µM); MIC (S. faecalis IID 682; [11]): 0.05 µg/mL (≈ 0.111 µM); MIC (S. pyogenes 3130; read-out: MIC): 0.05 µg/mL (≈ 0.111 µM); MIC (S. marcescens GN 7577; [12]): 0.78 µg/mL (≈ 1.72 µM); MIC (S. pyogenes 3102; [13]): 0.05 µg/mL (≈ 0.111 µM); MIC (P. aeruginosa IID 1210): 1.56 µg/mL (≈ 3.45 µM); MIC [9]: 0.39 µg/mL (≈ 0.862 µM); MIC (S. pyogenes 4340; [14]): 0.05 µg/mL (≈ 0.111 µM); MIC (S. agalactiae 4342): 0.05 µg/mL (≈ 0.111 µM)
2 | CN(C)CC1CCN(c2c(F)cc3c(=O)c(C(=O)O)cn(C4CC4)c3c2Cl)C1 (stereo not drawn) [Example 20, 8-Chloro-1-cyclopropyl-6-fluoro-1,4-dihydro-7-(3-dimethylaminomethyl-l-pyrrolidinyl)-4-oxo-3-quinolinecarboxylic acid] | 0.05 (≈ 0.123 µM) | 0.1 (≈ 0.245 µM) | 0.39 (≈ 0.956 µM) | 0.1 (≈ 0.245 µM) | 0.1 (≈ 0.245 µM) | ≤ 0.05 | 0.1 (≈ 0.245 µM) | 0.05 (≈ 0.123 µM) | 0.1 (≈ 0.245 µM) | 0.39 (≈ 0.956 µM) | 0.78 (≈ 1.91 µM) | 0.05 (≈ 0.123 µM) | 0.1 (≈ 0.245 µM) | 0.05 (≈ 0.123 µM) | 0.1 (≈ 0.245 µM) | 0.1 (≈ 0.245 µM) | 0.025 (≈ 0.0613 µM) | 0.025 (≈ 0.0613 µM) | 0.05 (≈ 0.123 µM) | 0.05 (≈ 0.123 µM) | MIC (S. pyogenes 3107; [10]): 0.05 µg/mL (≈ 0.123 µM); MIC (S. aureus Smith; read-out: MIC): 0.025 µg/mL (≈ 0.0613 µM); MIC (S. faecalis IID 682; [11]): 0.1 µg/mL (≈ 0.245 µM); MIC (S. pyogenes 3130; read-out: MIC): 0.05 µg/mL (≈ 0.123 µM); MIC (S. marcescens GN 7577; [12]): 1.56 µg/mL (≈ 3.82 µM); MIC (S. pyogenes 3102; [13]): 0.05 µg/mL (≈ 0.123 µM); MIC (P. aeruginosa IID 1210): 1.56 µg/mL (≈ 3.82 µM); MIC [9]: 0.39 µg/mL (≈ 0.956 µM); MIC (S. pyogenes 4340; [14]): 0.05 µg/mL (≈ 0.123 µM); MIC (S. agalactiae 4342): 0.1 µg/mL (≈ 0.245 µM)
3 | CN(C)CC1CCN(c2c(F)cc3c(=O)c(C(=O)O)cn(C4CC4)c3c2F)C1 (stereo not drawn) [Example 21, 1-Cyclopropyl-6,8-difluoro-1,4-dihydro-7-(3-dimethylaminomethyl-1-pyrrolidinyl)-4-oxo-3-quinolinecarboxylic acid] | 0.2 (≈ 0.511 µM) | 0.1 (≈ 0.255 µM) | 0.78 (≈ 1.99 µM) | 0.2 (≈ 0.511 µM) | 0.2 (≈ 0.511 µM) | 0.2 (≈ 0.511 µM) | 0.1 (≈ 0.255 µM) | 0.05 (≈ 0.128 µM) | 0.2 (≈ 0.511 µM) | 0.78 (≈ 1.99 µM) | 3.13 (≈ 8 µM) | 0.05 (≈ 0.128 µM) | 0.2 (≈ 0.511 µM) | 0.05 (≈ 0.128 µM) | 0.2 (≈ 0.511 µM) | 0.39 (≈ 0.996 µM) | 0.05 (≈ 0.128 µM) | 0.05 (≈ 0.128 µM) | 0.05 (≈ 0.128 µM) | 0.05 (≈ 0.128 µM) | MIC (S. pyogenes 3107; [10]): 0.1 µg/mL (≈ 0.255 µM); MIC (S. aureus Smith; read-out: MIC): 0.05 µg/mL (≈ 0.128 µM); MIC (S. faecalis IID 682; [11]): 0.2 µg/mL (≈ 0.511 µM); MIC (S. pyogenes 3130; read-out: MIC): 0.1 µg/mL (≈ 0.255 µM); MIC (S. marcescens GN 7577; [12]): 1.56 µg/mL (≈ 3.99 µM); MIC (S. pyogenes 3102; [13]): 0.1 µg/mL (≈ 0.255 µM); MIC (P. aeruginosa IID 1210): 3.13 µg/mL (≈ 8 µM); MIC [9]: 0.39 µg/mL (≈ 0.996 µM); MIC (S. pyogenes 4340; [14]): 0.1 µg/mL (≈ 0.255 µM); MIC (S. agalactiae 4342): 0.2 µg/mL (≈ 0.511 µM)
4 | CCn1cc(C(=O)O)c(=O)c2cc(F)c(N3CCNCC3)cc21 [NFLX, Norfloxacin, reference compound] | 3.13 (≈ 9.8 µM) | 0.1 (≈ 0.313 µM) | 3.13 (≈ 9.8 µM) | 3.13 (≈ 9.8 µM) | 6.25 (≈ 19.6 µM) | 25 (≈ 78.3 µM) | 0.1 (≈ 0.313 µM) | 0.05 (≈ 0.157 µM) | 6.25 (≈ 19.6 µM) | 50 (≈ 157 µM) | 100 (≈ 313 µM) | 3.13 (≈ 9.8 µM) | 6.25 (≈ 19.6 µM) | 0.05 (≈ 0.157 µM) | 0.2 (≈ 0.626 µM) | 25 (≈ 78.3 µM) | 0.1 (≈ 0.313 µM) | 0.05 (≈ 0.157 µM) | 0.39 (≈ 1.22 µM) | 0.05 (≈ 0.157 µM) | MIC (S. pyogenes 3107; 3107): 1.56 µg/mL (≈ 4.89 µM); MIC (S. aureus Smith): 1.56 µg/mL (≈ 4.89 µM); MIC (S. faecalis IID 682): 1.56 µg/mL (≈ 4.89 µM); MIC (S. pyogenes 3130): 1.56 µg/mL (≈ 4.89 µM); MIC (S. marcescens GN 7577): 1.56 µg/mL (≈ 4.89 µM); MIC (S. pyogenes 3102; 3102): 1.56 µg/mL (≈ 4.89 µM); MIC (P. aeruginosa IID 1210): 3.13 µg/mL (≈ 9.8 µM); MIC [9]: 0.78 µg/mL (≈ 2.44 µM); MIC (S. pyogenes 4340; 4340): 1.56 µg/mL (≈ 4.89 µM); MIC (S. agalactiae 4342): 6.25 µg/mL (≈ 19.6 µM)
